Active and inactive are the calls of the source. The calls are words filed in the database; no cut-off is given here.
Key:
Progesterone receptor [1] = molecular target: T1, Progesterone receptor (Homo sapiens, UniProt P06401); experiment: Antagonist activity against progesterone receptor in human T47D cells by alkaline phosphatase assay; format: functional, cell-based
T1 sequence (P06401 whole entry): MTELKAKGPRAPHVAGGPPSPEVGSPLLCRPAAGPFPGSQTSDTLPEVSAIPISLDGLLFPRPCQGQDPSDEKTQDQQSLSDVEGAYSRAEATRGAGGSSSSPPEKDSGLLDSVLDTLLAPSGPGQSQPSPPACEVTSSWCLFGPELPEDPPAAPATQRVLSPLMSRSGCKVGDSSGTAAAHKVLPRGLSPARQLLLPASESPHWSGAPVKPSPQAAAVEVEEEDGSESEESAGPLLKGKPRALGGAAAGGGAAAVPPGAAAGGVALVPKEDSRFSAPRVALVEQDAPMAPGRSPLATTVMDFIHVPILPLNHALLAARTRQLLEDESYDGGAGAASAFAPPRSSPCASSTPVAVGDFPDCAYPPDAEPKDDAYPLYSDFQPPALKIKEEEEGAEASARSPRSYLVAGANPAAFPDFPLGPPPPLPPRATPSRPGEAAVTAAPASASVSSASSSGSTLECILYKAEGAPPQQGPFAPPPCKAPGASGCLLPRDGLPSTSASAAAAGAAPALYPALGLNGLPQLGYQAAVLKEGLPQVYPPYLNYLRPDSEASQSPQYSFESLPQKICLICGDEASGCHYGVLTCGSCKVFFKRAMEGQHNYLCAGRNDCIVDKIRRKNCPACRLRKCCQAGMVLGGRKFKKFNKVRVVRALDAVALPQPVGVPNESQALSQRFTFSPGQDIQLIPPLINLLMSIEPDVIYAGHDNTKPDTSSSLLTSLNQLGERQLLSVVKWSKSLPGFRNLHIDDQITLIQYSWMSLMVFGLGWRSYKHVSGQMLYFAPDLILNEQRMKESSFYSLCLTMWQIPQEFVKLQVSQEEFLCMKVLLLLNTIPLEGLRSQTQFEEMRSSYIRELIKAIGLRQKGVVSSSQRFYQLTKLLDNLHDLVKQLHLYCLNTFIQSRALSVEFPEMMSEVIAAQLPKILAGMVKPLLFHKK

Salmonella typhimurium = experiment: Mutagenicity in Salmonella typhimurium in absence of liver S9 fraction by non-GLP Ames test; format: toxicity, organism-based; conditions: salmonella enterica subsp. enterica serovar typhimurium
[2] = Clearance in cynomolgus monkey at 2 mg/kg, iv; format: ADME, organism-based, Macaca fascicularis; parameters: dose 2 mg/kg, route intravenous; conditions: in vivo
Androgen receptor = molecular target: T2, Androgen receptor (Homo sapiens, UniProt P10275); experiment: Antagonist activity at androgen receptor by cellular reporter gene assay; format: functional
T2 sequence (P10275 whole entry): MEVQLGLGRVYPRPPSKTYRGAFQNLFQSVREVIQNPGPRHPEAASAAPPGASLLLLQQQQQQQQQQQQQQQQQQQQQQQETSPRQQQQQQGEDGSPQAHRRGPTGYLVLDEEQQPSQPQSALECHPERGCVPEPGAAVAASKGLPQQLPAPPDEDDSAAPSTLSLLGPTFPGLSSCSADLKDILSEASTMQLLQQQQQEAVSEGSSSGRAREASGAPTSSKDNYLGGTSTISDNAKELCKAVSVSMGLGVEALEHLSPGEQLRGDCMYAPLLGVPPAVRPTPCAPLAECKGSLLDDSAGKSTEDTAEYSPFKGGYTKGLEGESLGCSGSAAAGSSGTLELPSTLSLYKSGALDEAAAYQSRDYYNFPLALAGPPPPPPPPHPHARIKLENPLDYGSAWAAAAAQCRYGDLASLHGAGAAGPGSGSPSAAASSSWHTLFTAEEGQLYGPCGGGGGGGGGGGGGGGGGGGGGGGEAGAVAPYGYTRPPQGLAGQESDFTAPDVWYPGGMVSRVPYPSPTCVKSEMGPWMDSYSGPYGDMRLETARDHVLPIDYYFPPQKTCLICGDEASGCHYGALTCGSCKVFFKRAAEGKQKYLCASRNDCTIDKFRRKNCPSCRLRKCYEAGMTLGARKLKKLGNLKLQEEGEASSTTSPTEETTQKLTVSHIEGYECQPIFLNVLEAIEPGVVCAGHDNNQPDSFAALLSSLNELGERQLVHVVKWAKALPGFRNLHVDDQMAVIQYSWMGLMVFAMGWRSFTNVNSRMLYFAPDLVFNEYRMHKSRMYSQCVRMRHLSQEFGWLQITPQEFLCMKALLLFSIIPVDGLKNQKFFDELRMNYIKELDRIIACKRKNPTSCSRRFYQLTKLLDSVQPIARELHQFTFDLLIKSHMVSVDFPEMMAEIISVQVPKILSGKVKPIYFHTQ

[3] = AUC (0 to infinity) in rat at 2 mg/kg, po; format: ADME, organism-based; parameters: time infinity, dose 2 mg/kg, route oral; conditions: plasma
[4] = Half life in cynomolgus monkey at 2 mg/kg, po; format: ADME, organism-based, Macaca fascicularis; parameters: dose 2 mg/kg, route oral; conditions: in vivo
Rhesus monkey = experiment: Induction of early menstruation in ovariectomized rhesus monkey menses induction model at 5 mg/kg/day, po; format: functional, organism-based; conditions: Macaca mulatta
Plasma = experiment: Average drug concentration in ovariectomized rhesus monkey plasma at 5 mg/kg/day, po; format: ADME, organism-based, Macaca mulatta; parameters: route oral; conditions: in vivo
[5] = Half life in rat at 2 mg/kg, po; format: ADME, organism-based; parameters: dose 2 mg/kg, route oral; conditions: in vivo
Progesterone receptor [6] = molecular target: T1, Progesterone receptor; experiment: Antagonist activity at progesterone receptor by cellular reporter gene assay; format: functional
[7] = Cmax in rat at 2 mg/kg, po; format: ADME, organism-based; parameters: dose 2 mg/kg, route oral; conditions: in vivo
Glucocorticoid receptor = molecular target: T3, Glucocorticoid receptor (Homo sapiens, UniProt P04150); experiment: Antagonist activity at glucocorticoid receptor by cellular reporter gene assay; format: functional
T3 sequence (P04150 whole entry): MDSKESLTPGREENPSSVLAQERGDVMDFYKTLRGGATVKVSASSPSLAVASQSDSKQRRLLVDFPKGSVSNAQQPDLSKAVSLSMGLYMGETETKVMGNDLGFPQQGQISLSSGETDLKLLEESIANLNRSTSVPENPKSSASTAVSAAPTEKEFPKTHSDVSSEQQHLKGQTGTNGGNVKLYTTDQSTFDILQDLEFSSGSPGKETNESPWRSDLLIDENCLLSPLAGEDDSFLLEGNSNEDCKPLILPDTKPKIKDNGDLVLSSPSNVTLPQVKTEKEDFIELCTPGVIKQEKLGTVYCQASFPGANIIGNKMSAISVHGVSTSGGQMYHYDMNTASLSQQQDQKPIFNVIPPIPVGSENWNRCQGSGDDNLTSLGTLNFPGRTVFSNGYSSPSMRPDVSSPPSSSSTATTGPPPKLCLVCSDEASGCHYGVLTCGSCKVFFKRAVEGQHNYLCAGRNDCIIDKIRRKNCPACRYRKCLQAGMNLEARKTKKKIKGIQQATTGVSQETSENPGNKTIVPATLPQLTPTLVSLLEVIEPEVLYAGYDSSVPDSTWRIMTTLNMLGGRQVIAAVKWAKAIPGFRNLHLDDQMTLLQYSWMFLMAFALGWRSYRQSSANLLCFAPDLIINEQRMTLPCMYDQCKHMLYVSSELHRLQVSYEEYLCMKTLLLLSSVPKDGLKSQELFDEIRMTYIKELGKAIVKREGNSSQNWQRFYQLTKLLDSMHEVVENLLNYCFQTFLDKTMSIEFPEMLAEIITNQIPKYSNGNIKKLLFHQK

| IC50 (Progesterone receptor [1]) [nM] | clearance [2] [mL/min/kg] | IC50 (Androgen receptor) [nM] | AUC(0-inf) [3] [ng·h/mL] | half-life [4] [h] | Cave (Plasma) [µM] | half-life [5] [h] | IC50 (Progesterone receptor [6]) [nM] | Cmax [7] [ng/mL] | IC50 (Glucocorticoid receptor) [nM] | Compound | Activity (Salmonella typhimurium) | Activity (Rhesus monkey) |
| --- | --- | --- | --- | --- | --- | --- | --- | --- | --- | --- | --- | --- |
| 12 | 2 | 100 | 15200 | 2.7 | 3.6 | 2.3 | 11.7 | 2800 | – | CCS(=O)(=O)Nc1cc(F)c(-c2ccc(C#N)n2C)c(F)c1 | Non-toxic | Active |
| 0.3 | – | 9 | – | – | – | – | 0.3 | – | 120 | COC[C@]1(OC)CC[C@H]2[C@@H]3CCC4=CC(=O)CCC4=C3[C@@H](c3ccc(/C=N/O)cc3)C[C@@]21C [ASOPRISNIL] | – | – |

— ChEMBL document CHEMBL2203135, “Novel progesterone receptor modulators: 4-aryl-phenylsulfonamides” (Bioorg Med Chem Lett, 2012)
